Test results from patent publication US20020127182A1, “Paramagnetic metal ion-based macrocylic magnetization transfer contrast agents and method of use” (Board of Regents, The University of Texas System, priority 2000, published 2002).

Key:
Type in all cases: physicochemical
[1] = Proton chemical shift of bound water of Ln(1)^3+ complexes relative to bulk water (1H NMR); conditions: relative to bulk water at 0 ppm
Text: As further illustrated in Table 1, the proton chemical shifts of bound water in these lanthanide-macrocylic complexes, δ, relative to bulk water, at 0 ppm are generally highly shifted, either more than 6 ppm downfield or upfield (i.e., ±6 ppm or more), depending upon the properties of the central lanthanide ions. At 1.5 Tesla (T), a magnetic field strength presently used by many commercial MRI scanners, the exchange limit regimes, Δω•τM, of Eu(1)^3+, Tb(1)^3+, Dy(1)^3+, and Ho(1)^3+ are all greater than 1. At higher fields, however, such as 4.7 T and 11.75 T, more lanthanide complexes have exchange limit regimes greater than 1, with Δω•τM increasing as field strength increases. Therefore, favorable MT contrast effects are available for a broad range of lanthanide-macrocylic complexes over a broad range of magnetic field strengths. […]

[2] = τM^298 from fit to bound-water 1H NMR line width
Text: (§1) Individual τM^298 values were obtained by fitting the temperature dependent ^17O NMR bound water line widths according to standard exchange theory. […] Because the bulk water ^17O resonance of Yb(1) solution was relatively narrow at all temperatures, no attempt was made to determine τM^298 for this complex based on the ^17O NMR line width data from bulk water. However, a fit to the bound-water ^1H NMR line width gave a τM^298 of 5.8 μs for Yb(1), consistent with the trend shown in FIG. 3. Moreover, ^1H NMR line width fitting gave very similar results for those systems for which the bound water is directly observable.

[3] = Bound water lifetime τM^298 of Ln(1)^3+ complexes by fitting temperature dependent 17O NMR bound water line widths; exchange limit regime Δω•τM calculated; conditions: for τM (bound water lifetime): Ln(1)^3+ complexes, 298 K
Procedure: A first experiment, examined the life times at 298° K, τM^298, of water molecules bound to various lanthanide-macrocylic complexes of the present invention, and having the general formula, Ln(1)^3+, where the four pendent arms R, R′, R″ and R″′ are all ethyl-acetamidoacetate (i.e., LnDOTA-4AmCE^3+), as depicted below: [drawing 4]
as §1
As further illustrated in Table 1, the proton chemical shifts of bound water in these lanthanide-macrocylic complexes, δ, relative to bulk water, at 0 ppm are generally highly shifted, either more than 6 ppm downfield or upfield (i.e., ±6 ppm or more), depending upon the properties of the central lanthanide ions. At 1.5 Tesla (T), a magnetic field strength presently used by many commercial MRI scanners, the exchange limit regimes, Δω•τM, of Eu(1)^3+, Tb(1)^3+, Dy(1)^3+, and Ho(1)^3+ are all greater than 1. At higher fields, however, such as 4.7 T and 11.75 T, more lanthanide complexes have exchange limit regimes greater than 1, with Δω•τM increasing as field strength increases. Therefore, favorable MT contrast effects are available for a broad range of lanthanide-macrocylic complexes over a broad range of magnetic field strengths.

[4] = 1H NMR spectra of Ln(9)^3+ complexes, exchangeable amide protons
Text: For certain Ln(9)^3+ complexes, for example, with Ln equal to Yb or Tm, the bound water molecules are ^1H NMR invisible probably due to the fast exchange between the bound water and the bulk water. […] Unfortunately, the NMR signal was invisible, probably due to its fast exchange with the bulk water. However, the eight exchangeable amide protons present as two resonance peaks with equivalent intensity, at −14.5 (Ha) and −17.7 (Hb) ppm, respectively, are visible.

[5] = MT profiles (Z-profiles, CEST profiles) of Ln(1)^3+ complexes at 4.7 T; conditions: for bound water position at which saturating RF pulse is directed: bulk water at 0 ppm, aqueous 62.5 mM, neutral pH, about 22° C.
Procedure: In a second experiment, MT profiles, also known as Z-profiles or CEST profiles, were obtained for lanthanide-macrocylic complexes of the general formula Ln(1)^3+. FIGS. 4-7 show representative spectra in the absence of saturation (bulk water peak at 0 ppm truncated to make the bound water peaks more visible) and MT profiles for Eu(1)^3+, Pr(1)^3+, Nd(1)^3+ and Yb(1)^3+ complexes, respectively, all measured at 4.7 T. All experiments were conducted using aqueous 62.5 mM Ln(1)^3+ adjusted to neutral pH and about 22° C., using an saturation duration time of 1 s, RF power of 16 db, and a 2.5 cm surface coil. […] Among these three complexes, Eu(1)^3+, shown in FIG. 4, had the greatest effect when the saturating pulse was centered at about 50 ppm (arrow): about a 60% decrease in the magnetization of bulk water, Ms, as compared to the magnetization of bulk water in the absence of a saturating pulse, Mo. Importantly, as indicated by a Ms/Mo of about 100%, when the counter-position (i.e., −50 ppm) was saturated, there was no distortion in the bulk water signal. Of course when the saturation pulse is directed to 0 ppm (arrow) there is no signal and therefore Ms/Mo is about 0%.

[6] = MT MR imaging of vial phantom with Ln(1)^3+ complexes at 4.7 T; conditions: saturating bound water, 62.5 mM, neutral pH
Procedure: A third series of experiments was performed to examine the ability of lanthanide-macrocylic complexes of the general formula Ln(1)^3+ to enhance MRI contrast by MT. […] The inner vial contains 62.5 mM Eu(1)^3+ or Nd(1)^3+ at neutral pH, while the outer vial is pure water. T1-weighted spin-echo images (TR/TE=500/18 ms, 256×256 data matrix) were obtained at about 22° C. and a field strength of 4.7 T. MT was achieved by applying RF irradiation for 1 s, with a power of 16 db by using a 2.5 cm surface coil. […] The inner vial contains 62.5 mM Nd(1)^3+ at neutral pH, while the outer vial is pure water. The irradiation duration time was 2 s, with a power of 41 db by using a 2.5 cm surface coil.
These levels of contrast are much better than expected for diamagnetic CAs where the resonance signal of the NH or OH group undergoing chemical exchange is only a few ppm away from the resonance signal of bulk water.

Compound	δ, proton chemical shift of bound water [1] [ppm]	Δω●τM (exchange limit regime) ([3]; 1.5 T)	Δω●τM (exchange limit regime) ([3]; 4.7 T)	Δω●τM (exchange limit regime) ([3]; 11.75 T)	τM (bound water lifetime) [3] [μs]	other results
CCOC(=O)CNC(=O)CN1CCN(CC(=O)NCC(=O)OCC)CCN(CC(=O)NCC(=O)OCC)CCN(CC(=O)NCC(=O)OCC)CC1.[Yb+3] [Yb(1)^3+]	200	0.2	0.5	1.9	3	τM^298 of bound water [2]: 5.8 μs
CCOC(=O)CNC(=O)CN1CCN(CC(=O)NCC(=O)OCC)CCN(CC(=O)NCC(=O)OCC)CCN(CC(=O)NCC(=O)OCC)CC1.[Ho+3] [Ho(1)^3+]	−360		8.6	21.5	19	Δω●τM (exchange limit regime) ([3]; 1.5 T, listed as Ho^3+): 2.8
NC(=O)CN1CCN(CC(N)=O)CCN(CC(N)=O)CCN(CC(N)=O)CC1.[Tm+3] [Tm(9)^3+]						chemical shift of amide protons, first set (Ha) [4]: −42 ppm; chemical shift of amide protons, second set (Hb) [4]: −52 ppm
CCOC(=O)CNC(=O)CN1CCN(CC(=O)NCC(=O)OCC)CCN(CC(=O)NCC(=O)OCC)CCN(CC(=O)NCC(=O)OCC)CC1.[Dy+3] [Dy(1)^3+]	−720		15.4	38.5	17	Δω●τM (exchange limit regime) ([3]; 1.5 T, listed as Dy^3+): 4.9
CCOC(=O)CNC(=O)CN1CCN(CC(=O)NCC(=O)OCC)CCN(CC(=O)NCC(=O)OCC)CCN(CC(=O)NCC(=O)OCC)CC1.[Sm+3] [Sm(1)^3+]	−4	0.5	1.6	4.0	320	
CCOC(=O)CNC(=O)CN1CCN(CC(=O)NCC(=O)OCC)CCN(CC(=O)NCC(=O)OCC)CCN(CC(=O)NCC(=O)OCC)CC1.[Tm+3] [Tm(1)^3+]	500	0.6	1.9	4.7	3	
CCOC(=O)CNC(=O)CN1CCN(CC(=O)NCC(=O)OCC)CCN(CC(=O)NCC(=O)OCC)CCN(CC(=O)NCC(=O)OCC)CC1.[Er+3] [Er(1)^3+]	200	0.7	2.3	5.7	9	
CCOC(=O)CNC(=O)CN1CCN(CC(=O)NCC(=O)OCC)CCN(CC(=O)NCC(=O)OCC)CCN(CC(=O)NCC(=O)OCC)CC1.[Pr+3] [Pr(1)^3+]	−60	0.5	1.5	3.8	20	bound water position at which saturating RF pulse is directed [5]: −45 ppm
CCOC(=O)CNC(=O)CN1CCN(CC(=O)NCC(=O)OCC)CCN(CC(=O)NCC(=O)OCC)CCN(CC(=O)NCC(=O)OCC)CC1.[Eu+3] [Eu(1)^3+]	50		24.0	60.0	382	bound water position at which saturating RF pulse is directed [5]: +50 ppm; decrease in the magnetization of bulk water, Ms, compared to Mo ([5]; saturating pulse at about 50 ppm, 62.5 mM, 1 s, 16 db): ~60%; Ms/Mo when counter-position saturated ([5]; saturation at −50 ppm, 62.5 mM): about 100%; Δω●τM (exchange limit regime) ([3]; 1.5 T, listed as Eu^3+): 7.7; decrease in the bulk water signal in the inner vials (MT images) [6]: ~80%
CCOC(=O)CNC(=O)CN1CCN(CC(=O)NCC(=O)OCC)CCN(CC(=O)NCC(=O)OCC)CCN(CC(=O)NCC(=O)OCC)CC1.[Nd+3] [Nd(1)^3+]	−32	1.0	3.2	8.0	80	decrease in the bulk water signal in the inner vials (MT images) [6]: ~80%
CCOC(=O)CNC(=O)CN1CCN(CC(=O)NCC(=O)OCC)CCN(CC(=O)NCC(=O)OCC)CCN(CC(=O)NCC(=O)OCC)CC1.[Tb+3] [Tb(1)^3+]	−600		23.4	58.5	31	Δω●τM (exchange limit regime) ([3]; 1.5 T, listed as Tb^3+): 7.5
